Data from publication PMC10584170, “Machine learning-based phenotypic imaging to characterise the targetable biology of Plasmodium falciparum male gametocytes for the development of transmission-blocking antimalarials” (PLOS Pathogens, 2023).

Tests used:
[1] = test system: P. falciparum male gametocytes; assay: P. falciparum Dual Gamete Formation Assay (PfDGFA), male readout (exflagellation); type: cell-based, Plasmodium falciparum NF54; conditions: for Average inhibition male (%): average of replicates; for % inhibition male (individual replicates) R1: replicate R1; for % inhibition male (individual replicates) R3: replicate R3; for % inhibition male (individual replicates) R4: replicate R4; for Activity: hit = >50% inhibition in male or female readout in at least 3 replicates, 0 = no class assigned
How it was run: (§1)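 Day-14 NF54 gametocytes were incubated with compound for 24 h at 37°C under 1% O2/3% CO2/96% N2. Gametogenesis was triggered with ookinete medium (0.1 μM xanthurenic acid) plus Cy3-anti-Pfs25, and exflagellation was imaged by brightfield after cooling to 4°C then 28°C. Females were imaged by Pfs25 fluorescence 24 h later at 28°C.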

[2] = test system: P. falciparum female gametocytes; assay: P. falciparum Dual Gamete Formation Assay (PfDGFA), female readout (Pfs25-positive female gametes); type: cell-based, Plasmodium falciparum NF54; conditions: for Average inhibition female (%): average of replicates; for % inhibition female (individual replicates) R1: replicate R1; for % inhibition female (individual replicates) R3: replicate R3; for % inhibition female (individual replicates) R4: replicate R4
How it was run: as §1

[3] = 2µM, 24h preincubation with gametocytes prior to induction of gametogenesis
[4] = 2µM, 24h preincubation, hits selected on >50% inhibition in the male readout across replicates
[5] = PfDGFA at 2µM, 24h preincubation
[6] = 2µM, 24h preincubation, hits selected on >50% inhibition in the female readout across replicates
[7] = PfDGFA at 2µM, 24h preincubation with gametocytes prior to induction of gametogenesis
[8] = 2µM, 24h preincubation, number of replicates with >50% inhibition in the male readout
[9] = 2µM, 24h preincubation, number of replicates with >50% inhibition in the female readout
[10] = PfDGFA at 2µM, 24h preincubation with gametocytes
[11] = number of replicates with >50% inhibition in the male readout, 2µM
[12] = number of replicates with >50% inhibition in the female readout, 2µM

SMILES	Average inhibition male (%) [1, 3]	% inhibition male (individual replicates) R1 [1, 3]	% inhibition male (individual replicates) R3 [1, 3]	% inhibition male (individual replicates) R4 [1, 3]	HitlevelM [1, 4]	Activity [1, 5]	Average inhibition female (%) [2, 3]	% inhibition female (individual replicates) R1 [2, 3]	% inhibition female (individual replicates) R3 [2, 3]	% inhibition female (individual replicates) R4 [2, 3]	HitlevelF [2, 6]	other results
COc1ccc(Cc2cnc3nc(N)nc(N)c3c2C)cc1OC.O=S(=O)(O)CCO [TCMDC-138057]	-16.7%	13.3%	-15.1%	-55.1%	0	0	4.5%	12.4%	-12.7%	12.4%	0	–
COc1cccc(Cc2cnc3nc(N)nc(N)c3c2C)c1 [TCMDC-138060]	–	–	–	–	–	–	–	–	–	–	–	% inhibition male (individual replicates) R1 [1, 7]: 14.7%; % inhibition male (individual replicates) R4 [1, 7]: -36.5%; Average inhibition male (%) [1, 5]: 7.0%; % inhibition female (individual replicates) R1 [2, 7]: -4.3%; % inhibition female (individual replicates) R3 [2, 7]: -2.0%; % inhibition female (individual replicates) R4 [2, 7]: 3.5%; Average inhibition female (%) [2, 5]: -1.4%
COc1ccc(Cc2c(N)nc3nc(N)nc(N)c3c2C)cc1.Cl [TCMDC-138061]	–	–	–	–	–	–	–	–	–	–	–	% inhibition male (individual replicates) R1 [1, 7]: 17.1%; % inhibition male (individual replicates) R4 [1, 7]: -37.2%; Average inhibition male (%) [1, 5]: 0.0933%; % inhibition female (individual replicates) R1 [2, 7]: -3.3%; % inhibition female (individual replicates) R3 [2, 7]: 4.2%; % inhibition female (individual replicates) R4 [2, 7]: -0.2%; Average inhibition female (%) [2, 5]: 0.4%
Cc1nc(N)nc(N)c1CCCOc1ccccc1Br [TCMDC-138069]	1.8%	12.4%	-15.7%	-23.1%	0	0	5.9%	14.2%	13.3%	-1.6%	0	–
Cc1nc(N)nc(N)c1-c1ccc(Br)c([N+](=O)[O-])c1 [TCMDC-138071]	-11.3%	15.3%	5.2%	-48.5%	0	0	6.9%	11.0%	2.2%	10.1%	0	–
Cl.Clc1ccc(CNCCCCCCCNCc2ccc(Cl)c(Cl)c2)cc1Cl [TCMDC-138075]	58.0%	51.9%	–	51.1%	–	–	16.8%	19.3%	11.6%	13.1%	–	HitlevelM [1, 8]: 3; HitlevelF [2, 9]: 0
CC(=O)c1ccc2nc[nH]c(=O)c2c1 [TCMDC-138172]	–	–	–	–	–	–	–	–	–	–	–	Average inhibition male (%) [1, 10]: 79.0%; % inhibition male (individual replicates) R1 [1, 10]: 88.9%; % inhibition male (individual replicates) R3 [1, 10]: 57.7%; % inhibition male (individual replicates) R4 [1, 10]: 96.3%; HitlevelM [1, 11]: 4; Average inhibition female (%) [2, 10]: 55.1%; % inhibition female (individual replicates) R1 [2, 10]: 62.7%; % inhibition female (individual replicates) R3 [2, 10]: 39.9%; % inhibition female (individual replicates) R4 [2, 10]: 66.0%; HitlevelF [2, 12]: 3
COc1cc2nc(N3CCN(C(=O)c4c(Cl)nsc4-c4ccccc4Cl)CC3)nc(N)c2cc1OC.O=C(O)C(F)(F)F [TCMDC-138186]	36.4%	33.1%	-9.1%	66.9%	–	–	23.5%	19.4%	2.1%	50.6%	–	HitlevelM [1, 8]: 2; HitlevelF [2, 9]: 1
Cl.Cn1ccc(-c2cccc(Nc3ccnc4cc(-c5nccs5)ccc34)c2)n1 [TCMDC-138336]	33.2%	36.9%	–	5.3%	–	–	19.1%	19.3%	21.6%	9.3%	–	HitlevelM [1, 8]: 1; HitlevelF [2, 9]: 0
CN(C)CCNCc1ccc(-c2ccc3c(Nc4ccc(Oc5ccccc5)cc4)ccnc3c2)o1 [TCMDC-138399]	–	–	–	–	–	–	–	–	–	–	–	Average inhibition male (%) [1, 10]: 74.5%; % inhibition male (individual replicates) R1 [1, 10]: 82.1%; % inhibition male (individual replicates) R3 [1, 10]: 51.0%; % inhibition male (individual replicates) R4 [1, 10]: 85.6%; HitlevelM [1, 11]: 4; Average inhibition female (%) [2, 10]: 26.2%; % inhibition female (individual replicates) R1 [2, 10]: 29.8%; % inhibition female (individual replicates) R3 [2, 10]: 23.6%; % inhibition female (individual replicates) R4 [2, 10]: 16.9%; HitlevelF [2, 12]: 0
CN1CCN(Cc2nc(-c3ccc4c(Nc5ccc(Oc6ccccc6)cc5)ccnc4c3)cs2)CC1 [TCMDC-138409]	49.4%	33.1%	19.5%	56.9%	2	0	17.5%	9.4%	19.5%	18.6%	0	–
CN1CCN(Cc2nc(-c3ccc4c(Nc5ccc(F)c(O)c5)ccnc4c3)cs2)CC1 [TCMDC-138439]	3.8%	-1.6%	1.0%	20.9%	0	0	3.7%	13.1%	-10.3%	4.9%	0	–
CS(=O)(=O)CCNCc1ccc(-c2ccc3c(Nc4ccc(Cl)cc4F)ccnc3c2)o1 [TCMDC-138445]	–	–	–	–	–	–	–	–	–	–	–	% inhibition male (individual replicates) R1 [1, 7]: -15.4%; % inhibition male (individual replicates) R3 [1, 7]: 14.3%; % inhibition male (individual replicates) R4 [1, 7]: -10.6%; Average inhibition male (%) [1, 5]: -2.9%; % inhibition female (individual replicates) R1 [2, 7]: 4.7%; % inhibition female (individual replicates) R3 [2, 7]: -15.0%; % inhibition female (individual replicates) R4 [2, 7]: 12.7%; Average inhibition female (%) [2, 5]: -1.7%
CN(C)CCN(C)Cc1ccc(-c2ccc3c(Nc4ccc(F)cc4Cl)ccnc3c2)o1 [TCMDC-138447]	33.6%	23.0%	-2.6%	53.6%	–	–	19.6%	22.4%	-11.7%	48.1%	–	HitlevelM [1, 8]: 2; HitlevelF [2, 9]: 0
